Experiment [1] has as its system Total ATXN3 (tATXN3) protein. Put plainly: Endogenous Total ATXN3 (tATXN3) Protein Assay (MSD immunoassay of cell lysates). The format is cell-based. The settings on record: average IC50, total ATXN3 protein in cell lysate after 48 h with compound (Table 1). The essentials: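 Cells in DMEM/10% FBS were plated at 10,000 per well onto 7-point, 3.16-fold compound dilutions in duplicate for 48 h at 37° C, then lysed. Total ATXN3 in lysates was measured by MSD sandwich immunoassay: mouse anti-ATXN3 capture, rabbit anti-ATXN3 detection, SULFO-TAG anti-rabbit. Average IC50 was reported in star bins.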

Experiment [2] concerns ATXN3 pre-mRNA. In words: RT-qPCR Assay to Quantify Exon 4 Skipping in ATXN3 pre-mRNA in Cells. The format is cell-based. The settings on record: percent exon 4 skipping in ATXN3 pre-mRNA, RT-qPCR of cell lysates; average IC50. The essentials:
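Cells plated at 10,000/well onto a 7-point, 3.16-fold DMSO dilution series (duplicates), incubated 24 h at 37 °C, then lysed. Exon 4 skipping measured by one-step RT-qPCR (48 °C RT, 40 cycles); IC50 interpolated from dose-response fit of percent skipping.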
Background: Real-time PCR tracks product formation cycle by cycle.

What is called IC50 is the point on the concentration scale where inhibition reaches its midpoint. Regarding `N[C@@H]1CCCC[C@H]1c1c(Cl)c2nc(Cl)nc(NCc3ccccc3)c2n1C(F)F.N[C@H]1CCCC[C@@H]1c1c(Cl)c2nc(Cl)nc(NCc3ccccc3)c2n1C(F)F` (mixture of isomers) [Compound 418, 6-((1S,2S)-2-aminocyclohexyl)-N-benzyl-2,7-dichloro-5-(difluoromethyl)-5H-pyrrolo[3,2-d]pyrimidin-4-amine and 6-((1R,2R)-2-aminocyclohexyl)-N-benzyl-2,7-dichloro-5-(difluoromethyl)-5H-pyrrolo[3,2-d]pyrimidin-4-amine], the IC50 in experiment [1] and in experiment [2] was 30 to 300 nM throughout.

As to `Cc1c([C@@H]2CCCCCC[C@@H]2N)sc2c(NCc3cccs3)cc(Cl)nc12` [Compound 95, 2-((1R,2S)-2-aminocyclooctyl)-5-chloro-3-methyl-N-(thiophen-2-ylmethyl)thieno[3,2-b]pyridin-7-amine], the IC50 in experiment [1] and in experiment [2] was above 1000 nM each time.

“2-((1R,2R)-2-aminocyclohexyl)-5-chloro-3-methyl-N-(thiophen-2-ylmethyl)thieno[3,2-b]pyridin-7-amine or 2-((1S,2S)-2-aminocyclohexyl)-5-chloro-3-methyl-N-(thiophen-2-ylmethyl)thieno[3,2-b]pyridine-7-amine [Compound 35]”: the IC50 in experiment [1] and in experiment [2] was 300 to 1000 nM each time.

Turning to `Cc1c([C@H]2CCCCC[C@@H]2N)sc2c(NCc3cccs3)cc(Cl)nc12` [Compound 81, 2-((1S,2S)-2-aminocycloheptyl)-5-chloro-3-methyl-N-(thiophen-2-ylmethyl)thieno[3,2-b]pyridin-7-amine], the IC50 in experiment [1] and in experiment [2] was 30 to 300 nM each time.

In the case of `N[C@@H]1CCOC[C@H]1c1sc2c(NCc3ccco3)cc(Cl)nc2c1Cl` [Compound 389, 2-((3S,4R)-4-aminotetrahydro-2H-pyran-3-yl)-3,5-dichloro-N-(furan-2-ylmethyl)thieno[3,2-b]pyridin-7-amine], the IC50 in experiment [1] and in experiment [2] was 300 to 1000 nM each time.

For “2-((1R,2R)-2-aminocyclohexyl)-3,5-dichloro-1-(difluoromethyl)-N-(thiophen-2-ylmethyl)-1H-pyrrolo[3,2-b]pyridin-7-amine and 2-((1S,2S)-2-aminocyclohexyl)-3,5-dichloro-1-(difluoromethyl)-N-(thiophen-2-ylmethyl)-1H-pyrrolo[3,2-b]pyridin-7-amine [Compound 421]”, the IC50 in experiment [1] and in experiment [2] was at most 30 nM throughout.

With “2-((1R,6R)-6-aminocyclohex-3-en-1-yl)-5-chloro-3-methyl-N-(thiophen-2-ylmethyl)thieno[3,2-b]pyridin-7-amine and 2-((1S,6S)-6-aminocyclohex-3-en-1-yl)-5-chloro-3-methyl-N-(thiophen-2-ylmethyl)thieno[3,2-b]pyridin-7-amine [Compound 367]”, the IC50 in experiment [1] and in experiment [2] was 30 to 300 nM in each case.

`N[C@@H]1CC=CC[C@H]1c1sc2c(NCc3cccs3)cc(Cl)nc2c1I.N[C@H]1CC=CC[C@@H]1c1sc2c(NCc3cccs3)cc(Cl)nc2c1I` (mixture of isomers) [Compound 365, 2-((1R,6R)-6-aminocyclohex-3-en-1-yl)-5-chloro-3-iodo-N-(thiophen-2-ylmethyl)thieno[3,2-b]pyridin-7-amine and 2-((1S,6S)-6-aminocyclohex-3-en-1-yl)-5-chloro-3-iodo-N-(thiophen-2-ylmethyl)thieno[3,2-b]pyridin-7-amine]: the IC50 in experiment [1] and in experiment [2] was 30 to 300 nM in each case.

`N[C@H]1CCC[C@@H]1c1sc2c(NCc3ccccc3)cc(Cl)nc2c1Cl` [Compound 159, 2-((1S,2S)-2-aminocyclopentyl)-N-benzyl-3,5-dichlorothieno[3,2-b]pyridin-7-amine]: the IC50 in experiment [1] and in experiment [2] was above 1000 nM throughout.

In the case of `N[C@H]1CCCC[C@@H]1c1sc2c(NCc3ccccc3)nc(Cl)nc2c1Br` [Compound 65, 6-[(1S,2S)-2-aminocyclohexyl]-N-benzyl-7-bromo-2-chloro-thieno[3,2-d]pyrimidin-4-amine], the IC50 in experiment [1] and in experiment [2] was at most 30 nM throughout.

Regarding `N[C@H]1CCCN(c2ccccc2)[C@H]1c1sc2c(NCc3cccs3)cc(Cl)nc2c1Br` (racemic) [Compound 125, 2-((2R,3S)-3-amino-1-phenylpiperidin-2-yl)-3-bromo-5-chloro-N-(thiophen-2-ylmethyl)thieno[3,2-b]pyridin-7-amine and 2-((2S,3R)-3-amino-1-phenylpiperidin-2-yl)-3-bromo-5-chloro-N-(thiophen-2-ylmethyl)thieno[3,2-b]pyridin-7-amine], the IC50 in experiment [1] and in experiment [2] was above 1000 nM in each case.

Turning to `Cc1c([C@H]2OCCC[C@@H]2N)sc2c(NCc3ccccc3)nc(Cl)nc12` [Compound 63, 6-((2S,3S)-3-aminotetrahydro-2H-pyran-2-yl)-N-benzyl-2-chloro-7-methylthieno[3,2-d]pyrimidin-4-amine], the IC50 in experiment [1] and in experiment [2] was 30 to 300 nM throughout.

As to `CCc1c([C@H]2CCC[C@@H]2N)sc2c(NCc3cccs3)cc(Cl)nc12` [Compound 11, 2-((1S,2S)-2-aminocyclopentyl)-5-chloro-3-ethyl-N-(thiophen-2-ylmethyl)thieno[3,2-b]pyridin-7-amine], the figures for the IC50 in experiment [1] and in experiment [2] were 300 to 1000 nM and 30 to 300 nM, respectively.

On to `C#Cc1c([C@@H]2CCOC[C@H]2N)sc2c(NCc3ccco3)nc(Cl)nc12.C#Cc1c([C@H]2CCOC[C@@H]2N)sc2c(NCc3ccco3)nc(Cl)nc12` (mixture of isomers) [Compound 330, 6-((3R,4S)-3-aminotetrahydro-2H-pyran-4-yl)-2-chloro-7-ethynyl-N-(furan-2-ylmethyl)thieno[3,2-d]pyrimidin-4-amine and 6-((3S,4R)-3-aminotetrahydro-2H-pyran-4-yl)-2-chloro-7-ethynyl-N-(furan-2-ylmethyl)thieno[3,2-d]pyrimidin-4-amine], for which the IC50 in experiment [1] and in experiment [2] was 30 to 300 nM throughout.

For the compound `Cc1c([C@H]2CCC[C@@H]2N)sc2c(NCc3ccccc3)cc(Cl)nc12` [Compound 107, 2-((1S,2S)-2-aminocyclopentyl)-N-benzyl-5-chloro-3-methylthieno[3,2-b]pyridin-7-amine], the IC50 in experiment [1] and in experiment [2] was 300 to 1000 nM throughout.

As for “2-((3R,4S)-3-aminotetrahydro-2H-pyran-4-yl)-3-bromo-5-chloro-N-(furan-2-ylmethyl)thieno[3,2-b]pyridin-7-amine and 2-((3S,4R)-3-aminotetrahydro-2H-pyran-4-yl)-3-bromo-5-chloro-N-(furan-2-ylmethyl)thieno[3,2-b]pyridin-7-amine [Compound 316]”, the IC50 in experiment [1] and in experiment [2] was 30 to 300 nM each time.

Take `CC#CCNc1cc(Cl)nc2c(Br)c([C@@H]3CCCC[C@H]3N)sc12` [Compound 428, 2-((1R,2R)-2-aminocyclohexyl)-3-bromo-N-(but-2-yn-1-yl)-5-chlorothieno[3,2-b]pyridin-7-amine]: the IC50 in experiment [1] and in experiment [2] was 300 to 1000 nM each time.

`N[C@@H]1CC=CC[C@H]1c1sc2c(NCc3ccccc3)nc(Cl)nc2c1Br` [Compound 434, 6-((1R,6R)-6-aminocyclohex-3-en-1-yl)-N-benzyl-7-bromo-2-chlorothieno[3,2-d]pyrimidin-4-amine]: the IC50 in experiment [1] and in experiment [2] was 30 to 300 nM each time.

In the case of `N[C@H]1CC=CC[C@@H]1c1sc2c(NCc3cccs3)nc(Cl)nc2c1Br` [Compound 191, 6-((1S,6S)-6-aminocyclohex-3-en-1-yl)-7-bromo-2-chloro-N-(thiophen-2-ylmethyl)thieno[3,2-d]pyrimidin-4-amine], the IC50 in experiment [1] and in experiment [2] was at most 30 nM in each case.

Consider `N[C@@H]1CC=CC[C@H]1c1sc2c(NCc3cccs3)cc(Cl)nc2c1Cl.N[C@H]1CC=CC[C@@H]1c1sc2c(NCc3cccs3)cc(Cl)nc2c1Cl` (mixture of isomers) [Compound 431, 2-((1R,6R)-6-aminocyclohex-3-en-1-yl)-3,5-dichloro-N-(thiophen-2-ylmethyl)thieno[3,2-b]pyridin-7-amine and 2-((1S,6S)-6-aminocyclohex-3-en-1-yl)-3,5-dichloro-N-(thiophen-2-ylmethyl)thieno[3,2-b]pyridin-7-amine], for which the IC50 in experiment [1] and in experiment [2] was at most 30 nM each time.

In the case of `C/C=C/CNc1cc(Cl)nc2c(C)c([C@H]3CC=CC[C@@H]3N)sc12` [Compound 378, 2-((1S,6S)-6-aminocyclohex-3-en-1-yl)-N-((E)-but-2-en-1-yl)-5-chloro-3-methylthieno[3,2-b]pyridin-7-amine], the IC50 in experiment [1] and in experiment [2] was 30 to 300 nM throughout.

Take “2-((3R,4S)-3-aminotetrahydro-2H-pyran-4-yl)-N-benzyl-3,5-dichlorothieno[3,2-b]pyridin-7-amine and 2-((3S,4R)-3-aminotetrahydro-2H-pyran-4-yl)-N-benzyl-3,5-dichlorothieno[3,2-b]pyridin-7-amine [Compound 388]”: the IC50 in experiment [1] and in experiment [2] was 30 to 300 nM throughout.

On to `N[C@@H]1COCC[C@H]1c1sc2c(NCc3nccs3)cc(Cl)nc2c1I` [Compound 408, 2-((3S,4R)-3-aminotetrahydro-2H-pyran-4-yl)-5-chloro-3-iodo-N-(thiazol-2-ylmethyl)thieno[3,2-b]pyridin-7-amine], for which the IC50 in experiment [1] and in experiment [2] was 30 to 300 nM throughout.

On to `N[C@H]1COCC[C@@H]1c1sc2c(NCc3nccs3)cc(Cl)nc2c1Br` [Compound 285, 2-((3R,4S)-3-aminotetrahydro-2H-pyran-4-yl)-3-bromo-5-chloro-N-(thiazol-2-ylmethyl)thieno[3,2-b]pyridin-7-amine], for which the IC50 in experiment [1] and in experiment [2] was 30 to 300 nM each time.
